Values quoted from earlier work in patent publication US4259319A, “Antibiotic auromomycin, and process for production thereof” (Kanegafuchi Chemical Industry Company, Limited, priority 1977, dated 1981).

Legend:
Gram-positive bacteria = conditions: comparison substance
[1] = comparison substance

neocarcinostatin
Antibacterial activity (Gram-positive bacteria): inhibiting only Grampositive bacteria
isoelectric point [1]: 3.5 pH
